In patent US7731985B2, “4-aminopyrimidines and their use for the antimicrobial treatment of surfaces” (Ciba Specialty Chemicals Corporation, priority 2002, dated 2010):

Assays:
Assay in all cases: MIC in microtitre plates (Example 10)
Type in all cases: cell-based
Set-up in all cases: unit not given here
Conditions in all cases: microtitre plate, 48 hours at 37° C., ≦20% growth
[1] = tested on: Candida albicans ATCC 10231 (=CA)
Summary of the method: (§1)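 DMSO-dissolved compounds tested in 1:2 serial dilution against overnight CASO broth cultures, inoculum adjusted to 1-5×10^6 CFU/ml then diluted 1:100 in CASO. Incubated 48 hours at 37° C; turbidity read at 620 nm. MIC = lowest concentration giving ≦20% growth versus control; duplicates.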

[2] = tested on: Escherichia coli NCTC 8196 (=EC)
Summary of the method: as §1

[3] = tested on: Pseudomonas aeruginosa CIP A-22 (=PA)
Summary of the method: as §1

[4] = tested on: Staphylococcus aureus ATCC 9144 (=SA)
Summary of the method: as §1

SMILES	MIC CA [1]	MIC EC [2]	MIC PA [3]	MIC SA [4]
CCCCN(C)c1cc(C)nc(-c2csc(C)n2)n1 [compound 129]	120	>120	>120	120
NCCCCCCCCNc1nc(-c2ccccc2)nc(-c2cccc3ccccc23)c1-c1ccccc1 [compound 4]	15	30	>120	7.5
Cc1cc(N2CCCCCC2)nc(-c2cccnc2)n1 [compound 56]	120	>120	>120	60
CNCCN(C)c1nc(-c2ccccc2)nc(-c2ccc(C)cc2)c1-c1ccccc1 [compound 10]	30	30	>120	15
CCCCC(CC)CNc1cc(C)nc(C(C)C)n1 (stereo not drawn) [compound 138]	30	60	>120	30
Cc1cc(NC(C)CC(C)C)nc(C(C)C)n1 (stereo not drawn) [compound 146]	120	>120	>120	>120
CCCCC(CC)CNc1cc(C)nc(-c2ccccc2)n1 (stereo not drawn) [compound 133]	>120	>120	>120	15
CCCCCCCCCCCCNc1cc(C)nc(-c2cccnc2)n1 [compound 36]	7.5	15	60	7.5
CCCCCCNc1cc(C)nc(-c2csc(C)n2)n1 [compound 118]	15	60	>120	7.5
CCCCCCNc1cc(C)nc(-c2ccc(C)c(F)c2)n1 [compound 119]	120	>120	>120	7.5
CCCCCCCCCCNc1cc(C)nc(-c2ccc(-c3ccccc3)cc2)n1 [compound 97]	15	15	>120	7.5
Cc1cc(NC(C)CC(C)C)nc(-c2csc(C)n2)n1 (stereo not drawn) [compound 147]	120	>120	>120	60
FC(F)(F)c1cccc(-c2cc(N3CCC(CCCC4CCNCC4)CC3)ncn2)c1 [compound 30]	15	30	>120	60
NCCOCCOCCNc1nc(-c2ccccc2)nc(-c2cccc(C(F)(F)F)c2)c1-c1ccccc1 [compound 22]	7.5	15	>120	15
CCCCCCCCCCCCCCNc1cc(C)nc(-c2cccc(F)c2)n1 [compound 75]	7.5	15	>120	7.5
CCCCCCCCCCCCCCNc1cc(C)nc(-c2ccsc2)n1 [compound 74]	<3.75	7.5	>120	<3.75
CCCCCCCCCCNc1cc(C)nc(-c2ccccc2)n1 [compound 99]	30	15	>120	15
CCCCN(CCCC)c1cc(C)nc(-c2cccnc2)n1 [compound 54]	120	>120	>120	15

SMILES	MIC CA [1]	MIC EC [2]	MIC PA [3]	MIC SA [4]
CCCCCCCCCCCCNc1cc(C)nc(C(C)C)n1 [compound 93]	7.5	15	>120	<3.75
CCCN(CCC)c1cc(C)nc(-c2cccnc2)n1 [compound 52]	120	>120	>120	30
CCCCC(CC)CNc1cc(C)nc(C)n1 (stereo not drawn) [compound 135]	30	120	>120	60
CCCCC(CC)CNc1cc(C)nc(-c2ccc(C)cc2)n1 (stereo not drawn) [compound 136]	60	>120	>120	7.5
CNCCN(C)c1nc(-c2ccccc2)nc(-c2ccccc2OC)c1-c1ccccc1 [compound 26]	>120	60	>120	60
Cc1cc(NC(C)CC(C)C)nc(-c2cccnc2)n1 (stereo not drawn) [compound 41]	60	>120	>120	30
CCCCCCCCCCNc1cc(C)nc(C(C)C)n1 [compound 105]	7.5	15	>120	7.5
CCCCCCCCNc1cc(C)nc(-c2cccnc2)n1 [compound 34]	30	120	>120	7.5
CCCCCCCCCCCCCNc1cc(C)nc(-c2cccnc2)n1 [compound 37]	7.5	15	>120	7.5
CCCCCCCCNc1cc(C)nc(-c2ccccc2)n1 [compound 64]	15	30	>120	7.5
CCCCN(CCCC)c1cc(C)nc(-c2ccncc2)n1 [compound 121]	>120	>120	>120	30
Cc1cc(NC(C)CC(C)C)nc(C)n1 (stereo not drawn) [compound 143]	120	>120	>120	>120
Cc1ccc(-c2nc(-c3ccccc3)nc(NCCCCCCN)c2-c2ccccc2)cc1 [compound 11]	7.5	15	>120	7.5
Cc1ccc(-c2nc(-c3ccccc3)nc(N3CCC(CCCC4CCNCC4)CC3)c2-c2ccccc2)cc1 [compound 15]	>120	>120	>120	15
CCCCC(CC)CNc1cc(C)nc(-c2cccnc2)n1 (stereo not drawn) [compound 42]	30	120	>120	<3.75
CCCCCCCCCCNc1cc(C)nc(C)n1 [compound 101]	7.5	7.5	>120	7.5
CCCCCCCCCCCCCCNc1cc(C)nc(-c2ccc(C)c(F)c2)n1 [compound 83]	<3.75	7.5	>120	<3.75
CCCCCCNc1cc(C)nc(-c2ccc(N)cc2)n1 [compound 120]	30	120	>120	30
